These results are taken from PubChem BioAssay (NCI).

The TGI is the concentration giving total growth inhibition. The low end stands for more potent growth arrest, the high end for less potent growth arrest. As a reminder, the GI50 is the concentration that inhibits growth by half.

SMILES strings stand for the structures. Several values for one entry are separate records, joined by “and”; a condition that tells them apart may be missing. Identical values can stand only once.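 Five compound concentrations were applied to cells in 96-well plates for 48 hours; endpoints were derived by simple linear interpolation of the resulting dose-response curve. Abbreviation: GI50, concentration required for 50% inhibition of growth. TGI: total growth inhibition.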 Some results are limits rather than exact numbers.

What all share (assay): DTP human tumour cell line panel, 48 h
Assay [1] has as its system CCRF-CEM leukemia.
Assay [2] has as its system HT29 colon.
The test system of assay [3] is MOLT-4 leukemia.
In assay [4] the test system is NCI-H460 lung.
Assay [5] concerns OVCAR-3 ovarian.
Assay [6] deals with RPMI-8226 leukemia.
The subject of assay [7] is SK-MEL-5 melanoma.
Assay [8] relates to SW-620 colon.
Assay [9] relates to UO-31 renal.
Assay [10] concerns MALME-3M melanoma.
Assay [11] relates to NCI-H522 lung.
The subject of assay [12] is SN12C renal.

Regarding `CCOC(=O)c1csc(NC(=O)CN2CCCCC2)n1`, the TGI in assay [1], in assay [2], in [3], in assay [4], in assay [5] and in [6] was over 100 µM throughout. For the same molecule, the total growth inhibition concentration (TGI) in [7], in assay [8] and in assay [9] was over 100 µM in each case.
`CC(C)OP(=O)(OC(C)C)c1nn(-c2ccc([N+](=O)[O-])cc2)c(=N)s1`: the total growth inhibition concentration (TGI) in [1], in assay [2], in [10], in assay [3], in [4] and in assay [11] was over 100 µM in each case. In addition, the TGI in assay [5], in assay [6], in assay [7], in assay [12], in assay [8] and in [9] was over 100 µM throughout.
With `O=c1cnn(C/C=C/CP(=O)(O)O)c(=O)[nH]1`, the TGI in assay [10], in assay [4], in assay [11], in assay [5], in assay [6] and in assay [7] was over 100 µM in each case. For the same molecule, the total growth inhibition concentration (TGI) in [12], in assay [8] and in [9] was over 100 µM each time.
In the case of `CC1=CC(=C(c2ccc(N)c(C)c2)c2ccc(N)c(C)c2)C=CC1=N`, the total growth inhibition concentration (TGI) in assay [1] was 23 µM; in assay [2], 15.6 µM; in [10], 11.2 µM; in assay [3], 30.9 µM; in assay [4], over 31.6 µM; in assay [11], 13.6 µM. For the same molecule, the total growth inhibition concentration (TGI) in [5] worked out at 16.7 µM; in [6], 29.6 µM; in [7], 5.75 µM; in assay [12] it was 4.31 µM; in assay [8], 17.7 µM; in [9] it was 84.9 µM.
As to `O=S(=O)(O)c1cc(S(=O)(=O)O)c2c(N=Nc3ccccc3)c(O)ccc2c1`, the TGI in [1], in assay [2], in assay [3], in assay [5], in assay [6] and in assay [7] was over 100 µM in each case. Also, the concentration for total growth inhibition (TGI) in [12], in [8] and in assay [9] was over 100 µM throughout.
In the case of `COC(=O)C1C(O)C(C)C(O)C(C)/C=C\C=C(C)C(=O)Nc2c(C)c(OC(C)=O)c3c(c2O)C(=O)C(C)=C2OCOC(=C23)C(C)=CC(C)(O)C(O)C(C)C1O` (stereo unspecified), the GI50 in [1] was 18.9 µM and 54.7 µM; in [3], 18.1 µM and 51.1 µM; in assay [4] it was 20.5 µM and > 100 µM; in assay [11] it was 23.4 µM and 74.2 µM; in [5], 37.8 µM; in assay [6], 15.9 µM and 64.3 µM. The GI50 is 49 µM and > 100 µM in assay [12]; 20.1 µM in assay [8]. In addition, the TGI in [1] is 50.9 µM and > 100 µM; in assay [2], 40.2 µM and > 100 µM; in assay [10] it was over 100 µM; in assay [3] it was 45.4 µM and > 100 µM; in assay [4] it was over 100 µM; in assay [11], over 100 µM. For the same molecule, the total growth inhibition concentration (TGI) is > 72 µM and 64.2 µM in assay [5]; 41.3 µM and > 100 µM in assay [6]; 74.5 µM and > 100 µM in assay [7]; over 100 µM in [12]; 39.6 µM and > 100 µM in [8]; over 100 µM in assay [9].
For the molecule `O=S(=O)(O)c1cccc2ccc(O)c(N=Nc3ccc(S(=O)(=O)c4ccc(N=Nc5c(O)ccc6cccc(S(=O)(=O)O)c56)cc4)cc3)c12`, the total growth inhibition concentration (TGI) in assay [1], in assay [2], in assay [10], in [3], in [11] and in assay [5] was over 100 µM in each case. Further, the concentration for total growth inhibition (TGI) in assay [6], in assay [7], in assay [12], in assay [8] and in [9] was over 100 µM each time.
For the molecule `COC1C(=[N+]=[N-])C(=O)NC(=O)N1C1OC(COC(c2ccccc2)(c2ccccc2)c2ccccc2)C(O)C1O` (stereo unspecified), the TGI was 41.6 µM in [1]; 35.3 µM in [2]; 33.8 µM in assay [10]; 49.7 µM in assay [3]; 60.6 µM in [4]; 31 µM in assay [11]. Also, the TGI in assay [5] was found to be 32.9 µM; in assay [6] it was 61.8 µM; in assay [7], 30 µM; in assay [12], 32.7 µM; in [8], 35.8 µM; in assay [9], 32.2 µM.
As for `COc1cccc2c1C(=O)c1c(O)c3c(c(O)c1C2=O)CC(O)(C(C)=O)CC3OC1CC([N+](C)(C)C)C(O)C(C)O1` (stereo unspecified), the TGI in assay [1] is over 100 µM; in assay [2], over 100 µM; in assay [10], over 100 µM; in assay [3], 56.1 µM; in assay [4], over 100 µM; in assay [11] it was over 100 µM. Besides, the TGI in assay [5], in assay [6], in assay [7], in [12], in [8] and in [9] was over 100 µM in each case.
